Results on 38 molecules are retold here after patent US6596687B1, “Cell adhesion inhibitors” (Biogen, Inc., priority 1995, dated 2003).

The IC50 is the concentration that inhibits the measured activity by half.

Numbered stars: 1 amine (or outer) side, 2 acyl side, 3 side chain; on linkers, the order of the positions; unused ones are H or OH. Square brackets hold non-standard residues; d marks the D form. Peptide text beside a SMILES is read from it. * marks the point of attachment. 2‑MPUPA = 4-(N′-(2-methylphenyl)urea)phenylacetyl, Cc1ccccc1NC(=O)Nc1ccc(CC(=O)*)cc1; X2 = O=C(Cc1ccc(N[*:1])cc1)[*:2]; NH(2-Me-phenyl) = Cc1ccccc1N*; CO = O=C([*:1])[*:2]; NHPh = c1ccc(N*)cc1; Ahx = NCCCCCC(=O)O

Sequences and labels used below:
B1: Compound 153 (peptide)
peptide: FLDV
HELM: PEPTIDE1{[O=C(c1ccccc1)[*:2]].F.L.D.V}$$$$V2.0
SMILES: CC(C)C[C@H](NC(=O)[C@H](Cc1ccccc1)NC(=O)c1ccccc1)C(=O)N[C@@H](CC(=O)O)C(=O)N[C@H](C(=O)O)C(C)C
B2: Compound 338 (peptide)
peptide: LDVPST
HELM: PEPTIDE1{[Cc1ccccc1NC(=O)Nc1ccc(CC(=O)[*:2])cc1].L.D.V.P.S.T}$$$$V2.0
SMILES: Cc1ccccc1NC(=O)Nc1ccc(CC(=O)N[C@@H](CC(C)C)C(=O)N[C@@H](CC(=O)O)C(=O)N[C@H](C(=O)N2CCC[C@H]2C(=O)N[C@@H](CO)C(=O)N[C@H](C(=O)O)[C@@H](C)O)C(C)C)cc1
B3: Compound 339 (peptide)
peptide: VLPD
HELM: PEPTIDE1{[Cc1ccccc1NC(=O)Nc1ccc(CC(=O)[*:2])cc1].V.L.P.D}$$$$V2.0
SMILES: Cc1ccccc1NC(=O)Nc1ccc(CC(=O)N[C@H](C(=O)N[C@@H](CC(C)C)C(=O)N2CCC[C@H]2C(=O)N[C@@H](CC(=O)O)C(=O)O)C(C)C)cc1
B4: Compound 315 (peptide)
peptide: MDVP
HELM: PEPTIDE1{[Cc1ccccc1NC(=O)Nc1ccc(CC(=O)[*:2])cc1].M.D.V.P}$$$$V2.0
SMILES: CSCC[C@H](NC(=O)Cc1ccc(NC(=O)Nc2ccccc2C)cc1)C(=O)N[C@@H](CC(=O)O)C(=O)N[C@H](C(=O)N1CCC[C@H]1C(=O)O)C(C)C
B5: Compound 186 (peptide)
peptide: LDVM
HELM: PEPTIDE1{[O=C(c1ccc2ccccc2n1)[*:2]].L.D.V.M}$$$$V2.0
SMILES: CSCC[C@H](NC(=O)[C@@H](NC(=O)[C@H](CC(=O)O)NC(=O)[C@H](CC(C)C)NC(=O)c1ccc2ccccc2n1)C(C)C)C(=O)O
B6: Compound 168 (peptide)
peptide: LDVM
HELM: PEPTIDE1{[O=C(c1ccc2ccccc2n1)[*:2]].L.D.V.M.[CO[*:1]]}$$$$V2.0
SMILES: COC(=O)[C@H](CCSC)NC(=O)[C@@H](NC(=O)[C@H](CC(=O)O)NC(=O)[C@H](CC(C)C)NC(=O)c1ccc2ccccc2n1)C(C)C
B7: Compound 167 (peptide)
peptide: LDVM
HELM: PEPTIDE1{[CC(C)(C)OC(=O)[*:2]].L.D.V.M.[CO[*:1]]}$$$$V2.0
SMILES: COC(=O)[C@H](CCSC)NC(=O)[C@@H](NC(=O)[C@H](CC(=O)O)NC(=O)[C@H](CC(C)C)NC(=O)OC(C)(C)C)C(C)C

T2 sequence (P13612 34-1032): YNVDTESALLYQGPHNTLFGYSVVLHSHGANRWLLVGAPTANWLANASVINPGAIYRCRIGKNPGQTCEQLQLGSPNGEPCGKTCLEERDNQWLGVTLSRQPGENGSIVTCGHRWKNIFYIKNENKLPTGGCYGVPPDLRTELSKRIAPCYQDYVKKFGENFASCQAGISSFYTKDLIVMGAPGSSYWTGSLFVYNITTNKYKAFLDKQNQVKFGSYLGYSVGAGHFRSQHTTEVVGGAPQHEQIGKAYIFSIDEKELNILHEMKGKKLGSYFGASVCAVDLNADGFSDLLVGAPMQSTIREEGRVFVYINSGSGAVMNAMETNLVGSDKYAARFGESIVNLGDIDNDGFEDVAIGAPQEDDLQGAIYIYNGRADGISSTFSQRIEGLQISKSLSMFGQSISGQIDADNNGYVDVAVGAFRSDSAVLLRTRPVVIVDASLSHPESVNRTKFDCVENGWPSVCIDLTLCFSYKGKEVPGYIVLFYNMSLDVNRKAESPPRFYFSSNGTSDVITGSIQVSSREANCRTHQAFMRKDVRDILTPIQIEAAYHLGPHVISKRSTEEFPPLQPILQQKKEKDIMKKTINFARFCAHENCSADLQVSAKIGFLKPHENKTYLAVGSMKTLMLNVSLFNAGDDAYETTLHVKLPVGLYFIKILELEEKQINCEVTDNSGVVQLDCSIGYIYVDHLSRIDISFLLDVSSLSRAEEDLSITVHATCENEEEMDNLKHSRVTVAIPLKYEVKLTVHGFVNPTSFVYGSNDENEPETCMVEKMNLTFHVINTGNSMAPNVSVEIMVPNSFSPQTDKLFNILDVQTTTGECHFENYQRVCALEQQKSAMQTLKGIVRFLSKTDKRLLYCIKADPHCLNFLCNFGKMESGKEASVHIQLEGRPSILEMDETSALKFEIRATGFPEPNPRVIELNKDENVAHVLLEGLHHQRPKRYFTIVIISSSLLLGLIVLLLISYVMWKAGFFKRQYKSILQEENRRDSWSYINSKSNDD
T2 sequence (P05556 21-798): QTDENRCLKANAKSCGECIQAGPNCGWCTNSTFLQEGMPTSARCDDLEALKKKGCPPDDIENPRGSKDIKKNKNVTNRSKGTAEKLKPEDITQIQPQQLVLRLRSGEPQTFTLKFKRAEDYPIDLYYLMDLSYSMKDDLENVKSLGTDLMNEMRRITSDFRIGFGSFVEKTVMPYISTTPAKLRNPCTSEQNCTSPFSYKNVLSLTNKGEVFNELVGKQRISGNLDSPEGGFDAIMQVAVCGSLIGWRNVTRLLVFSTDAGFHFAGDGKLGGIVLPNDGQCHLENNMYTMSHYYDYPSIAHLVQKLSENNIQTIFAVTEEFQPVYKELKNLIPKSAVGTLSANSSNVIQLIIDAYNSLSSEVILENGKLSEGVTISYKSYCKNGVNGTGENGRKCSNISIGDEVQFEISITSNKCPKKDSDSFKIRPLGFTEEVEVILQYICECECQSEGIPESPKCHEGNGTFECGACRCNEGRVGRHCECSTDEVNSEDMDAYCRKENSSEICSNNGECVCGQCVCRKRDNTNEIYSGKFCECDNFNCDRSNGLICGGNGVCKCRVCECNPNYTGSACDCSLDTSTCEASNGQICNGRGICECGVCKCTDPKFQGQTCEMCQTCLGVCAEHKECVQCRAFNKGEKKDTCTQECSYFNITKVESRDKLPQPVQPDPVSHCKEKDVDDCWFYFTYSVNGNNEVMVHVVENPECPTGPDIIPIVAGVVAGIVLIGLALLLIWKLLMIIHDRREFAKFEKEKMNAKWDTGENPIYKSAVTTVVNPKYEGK

For the first experiment, the target named is T1, VLA-4 (alpha4beta1 integrin) (UniProt P13612 34-1032; P05556 21-798, limits assumed).
T1 construct: whole, on cells; also called very late antigen-4; CD49d/CD29
T1 sequence (P13612 34-1032 limits assumed, chain 1 of 2): as the sequence (P13612 34-1032) above
T1 sequence (P05556 21-798 limits assumed, chain 2 of 2): as the sequence (P05556 21-798) above
The experiment can be described thus: Ramos/BSA-CS1 adhesion inhibition.
Settings: not given
As for the experimental part: Following labelling, the cells were washed twice in assay buffer (24 mM TRIS, 137 mM NaCl, 2.7 mM KCl, pH 7.4, containing 0.1 BSA and 2mM glucose) to remove any cations originating from the culture medium. The cells were then resuspended in assay buffer to 4 ×10^6 cells/mL and 2 mM MnCl_2 was added to upregulate VLA4 on the surface of the cells.
Immediately prior to running the assay, we removed the BSA blocking solution from the 96-well plates and washed the wells with 100 μL of assay buffer. We then added to each well 25 μL of test cell adhesion inhibitory compound at 2×the final concentration and 25 μL of the labelled Ramos cells. […] Each concentration of compound was tested in triplicate. The compound and cells are allowed to incubate for 30 minutes at room temperature.
Percent binding is calculated by the formula: […]
As for Ac-FLDV-OH [Compound 152], the IC50 is greater than 10 µM.

Turning to {2‑MPUPA}-LDVPS-OH [Compound 337], the IC50 is less than 0.05 µM. Turning to B1, the half-maximal inhibitory concentration (IC50) is greater than 10 µM. On the same count and under the same terms, in the case of B2 it was less than 0.05 µM; in that of B3, greater than 10 µM; in that of {3‑methoxy‑4‑(N'-phenylurea)phenylacetyl}-MDVP-OH [Compound 2], less than 0.05 µM. {4‑(N'-2-hydroxyphenylurea)phenylacetyl}-MDVP-OH [Compound 146] registered an IC50 of less than 0.05 µM. B4 had a half-inhibitory concentration (IC50) of less than 0.05 µM. Consider B5, for which the IC50 was greater than 10 µM. For {2‑MPUPA}-K(Ahx)DVP-OH [Compound 202], the IC50 fell in the range of 0.05 to 10 µM. B6 registered a half-maximal inhibitory concentration (IC50) of 0.05 to 10 µM. As to B7, the concentration for half-maximal inhibition (IC50) was greater than 10 µM.

The next experiment concerns the target T2, VLA4 (Homo sapiens, UniProt P05556+P13612).
T2 construct: endogenous in cells; host or cells: Ramos cells
The experiment can be described thus: Inhibition of VLA4-dependent adhesion of Ramos cells to BSA-CS1.
Settings: not given
In kind it is cell-based. The procedure, abridged: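 BCECF-AM-labelled Ramos cells in Tris buffer pH 7.4 with 2 mM MnCl2 were added with compound to wells coated with BSA-conjugated Cys-Tyr-CS1 peptide (1 μg/mL). Cells and compound were incubated for 30 min at room temperature, in triplicate. Inhibition was quantified from bound fluorescence against no-compound controls, with uncoated wells used for nonspecific binding.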
`CC(C)CC(NC(=O)C1CCc2ccccc2N1)C(=O)NC(CC(=O)O)C(=O)NC(C(=O)N(C)c1ccccc1)C(C)C` (centres unmarked) [Compound 120] showed an IC50 greater than 10 µM.

The same experiment, now with this note: Ramos cells, BSA-CS1 coated wells, 2 mM MnCl2, 30 minutes at room temperature; read-out: IC50.
Regarding `COC(=O)[C@@H](NC(=O)[C@H](CC(=O)O)NC(=O)CNC(=O)c1ccccc1)C(C)C` [Compound 172] (HELM PEPTIDE1{[O=C(c1ccccc1)[*:2]].G.D.V.[CO[*:1]]}$$$$V2.0), the IC50 is greater than 10 µM.

As to `COC(=O)[C@@H](NC(=O)[C@H](CC(=O)O)N(C)C(=O)[C@H](CC(C)C)NC(=O)CCc1ccc(O)cc1)C(C)C` [Compound 22], the half-maximal inhibitory concentration (IC50) was greater than 10 µM. Regarding `CNC(=O)[C@@H](NC(=O)[C@H](CC(=O)O)NC(=O)C1(NC(=O)Cc2ccccc2)CCc2ccccc2C1)C(C)C` (some centres unmarked) [Compound 134], the concentration for half-maximal inhibition (IC50) was greater than 10 µM.

With `CSCC[C@H](NC(=O)[C@H](CC(=O)O)NC(=O)[C@H](CCSC)NC(=O)Cc1ccc(NC(=O)Nc2ccccc2C)cc1)C(N)=O` [Compound 225], the 50% inhibitory concentration (IC50) is less than 0.05 µM. In the case of `CC(C)[C@H](NC(=O)[C@H](CC(=O)O)NC(=O)C1CCc2ccccc2C1)C(=O)O` (some centres unmarked) [Compound 75], the 50% inhibitory concentration (IC50) was greater than 10 µM. As for `CSCC[C@H](NC(=O)[C@H](CC(=O)O)NC(=O)[C@@H]1CCCN1C(=O)Cc1ccc(NC(=O)Nc2ccccc2C)cc1)C(N)=O` [Compound 247], the IC50 was less than 0.05 µM. Take `CNC(=O)[C@@H](NC(=O)[C@H](CC(=O)O)NC(=O)[C@H](CC(C)C)N(C)C(=O)Cc1ccc(OC)cc1)C(C)C` [Compound 45]: the IC50 was greater than 10 µM. With `CC(C)C[C@H](NC(=O)C1Cc2ccccc2CN1)C(=O)N[C@@H](CC(=O)O)C(=O)N[C@@H](Cc1ccccc1)C(=O)O` (some centres unmarked) [Compound 92] (HELM PEPTIDE1{[O=C(C1Cc2ccccc2CN1)[*:2]].L.D.F}$$$$V2.0), the half-inhibitory concentration (IC50) is greater than 10 µM.

As for `CNC(=O)[C@@H](NC(=O)[C@H](CC(=O)O)NC(=O)[C@H](CCCNC(=N)N)NC(=O)Cc1ccccc1)C(C)C` [Compound 131] (HELM PEPTIDE1{[O=C(Cc1ccccc1)[*:2]].R.D.V.[CN[*:1]]}$$$$V2.0), the IC50 is greater than 10 µM. As to `CSCC[C@H](NC(=O)Cc1ccc(NC(=O)Nc2ccccc2C)cc1)C(=O)N[C@@H](CC(=O)O)C(=O)N[C@H](C(=O)N1CCC[C@H]1C(=O)O)C(C)C` [Compound 315] ({NH(2-Me-phenyl)-CO}-[X2]MDVP-OH), the IC50 was less than 0.05 µM. `COC(=O)[C@H](C(C)C)N(C)C(=O)[C@H](CC(=O)O)NC(=O)[C@H](CC(C)C)NC(=O)CCc1ccc(O)cc1` [Compound 20]: the IC50 is greater than 10 µM. On to `CNC(=O)[C@@H](NC(=O)[C@H](CC(=O)O)NC(=O)[C@H](CC(C)C)N(C)C(=O)CCc1ccccc1)C(C)C` [Compound 182] (HELM PEPTIDE1{[O=C(CCc1ccccc1)[*:2]].[meL].D.V.[CN[*:1]]}$$$$V2.0), for which the IC50 is greater than 10 µM. Turning to `Cc1ccccc1NC(=O)Nc1ccc(CC(=O)N[C@H](C(=O)N[C@@H](CC(=O)O)C(=O)N[C@@H](CC(=O)O)C(N)=O)[C@@H](C)O)cc1` [Compound 252], the concentration for half-maximal inhibition (IC50) is less than 0.05 µM. On to `CC[C@H](C)[C@H](NC(=O)Cc1ccc(NC(=O)Nc2ccccc2)cc1)C(=O)N[C@@H](CC(=O)O)C(=O)N[C@H](C(=O)N1CCC[C@H]1C(N)=O)C(C)C` [Compound 209] ({NHPh-CO}-[X2]IDVP-NH2), for which the concentration for half-maximal inhibition (IC50) is 0.05 to 10 µM. In the case of `CNC(=O)[C@H](COCc1ccccc1)NC(=O)[C@H](CC(=O)O)NC(=O)[C@H](CC(C)C)NC(=O)c1ccc2ccccc2n1` [Compound 353], the concentration for half-maximal inhibition (IC50) is greater than 10 µM.

`CNC(=O)[C@@H](NC(=O)[C@H](CC(=O)O)NC(=O)[C@H](CC(C)C)N(C)C(=O)c1ccc(OC)cc1)C(C)C` [Compound 128]: the IC50 was greater than 10 µM. Regarding `O=C(O)C[C@H](NC(=O)c1cc2ccccc2cn1)C(=O)N[C@@H](Cc1ccccc1)C(=O)O` [Compound 87], the IC50 is greater than 10 µM.

`CC(C)C[C@H](NC(=O)Cc1ccc(NC(=O)Nc2ccccc2)cc1)C(=O)N[C@@H](CC(=O)O)C(=O)N[C@H](C(=O)N1CCOCC1)C(C)C` [Compound 318]: the half-inhibitory concentration (IC50) is less than 0.05 µM. Still for that read-out and setting: under `CC(C)[C@H](NC(=O)[C@H](CC(=O)O)NC(=O)CCCCc1ccccc1)C(=O)O` [Compound 76] stands greater than 10 µM; under `CC(C)C[C@H](NC(=O)C1CCc2ccccc2C1)C(=O)N[C@@H](CC(=O)O)C(=O)N[C@H](C(=O)O)C(C)C` (some centres unmarked) [Compound 73], greater than 10 µM. Still for that read-out and setting: in the case of `CC(C)C[C@H](NC(=O)[C@H](CC(=O)O)NC(=O)[C@H](CC(C)C)NC(=O)C1Cc2ccccc2CN1)C(=O)O` (some centres unmarked) [Compound 90] (HELM PEPTIDE1{[O=C(C1Cc2ccccc2CN1)[*:2]].L.D.L}$$$$V2.0) it was greater than 10 µM. In the case of `CC(C)C[C@H](NC(=O)Cc1ccc(NC(=O)Nc2ccccc2)cc1)C(=O)N[C@@H](CC(=O)O)C(=O)N[C@H](C(=O)NC1CCCCC1)C(C)C` [Compound 320], the IC50 was 0.05 to 10 µM. On the same count and under the same terms, under `CC(C)C[C@H](NC(=O)Cc1ccc(NC(=O)Nc2ccccc2)cc1)C(=O)N[C@@H](CC(=O)O)C(=O)N[C@H](C(=O)N1CCC[C@H]1C(N)=O)C(C)C` [Compound 201] ({NHPh-CO}-[X2]LDVP-NH2) stands 0.05 to 10 µM; under `CC(C)C[C@H](NC(=O)c1ccc2ccccc2n1)C(=O)N[C@@H](CC(=O)O)C(=O)N[C@H](C(=O)N(C)c1ccccc1)C(C)C` [Compound 121], greater than 10 µM; under `CC(C)CCNC(=O)[C@H](CC(=O)O)NC(=O)[C@H](CC(C)C)NC(=O)CCCCc1ccccc1` [Compound 102], greater than 10 µM.
